{"source": "paper PMC6015500", "about": "(ACS combinatorial science, 2015)", "key": {"[1]": {"tested_on": "Huh7.5.1 cells", "experiment": "in vitro", "format": "cell-based"}, "[2]": {"tested_on": "HCV-Luc (recombinant HCV carrying the Renilla luciferase reporter)", "experiment": "HCV-Luc infection assay", "format": "cell-based, hepatitis C virus (HCV)"}, "[3]": {"experiment": "in vitro", "format": "cell-based", "conditions": "human"}, "[4]": {"tested_on": "HCV replicon cell line of genotype 1b", "experiment": "HCV subgenomic replicon assay, genotype 1b", "format": "cell-based, hepatitis C virus (HCV)", "conditions": "tested at 10 µM; % of DMSO control"}, "[5]": {"tested_on": "wild-type HCV (HCVcc, genotype 2a)", "experiment": "HCVcc wild-type infection assay", "format": "cell-based, hepatitis C virus (HCV)", "conditions": "Huh7.5.1 cells, compounds at 10 µM, 48 h, quantitative real-time PCR"}, "[6]": {"tested_on": "HCV replicon cell line of genotype 2a", "experiment": "HCV subgenomic replicon assay, genotype 2a", "format": "cell-based, hepatitis C virus (HCV)", "conditions": "tested at 10 µM; % of DMSO control"}, "[7]": {"tested_on": "VSVpp", "format": "cell-based"}, "[8]": {"experiment": "in vitro", "format": "cell-based", "conditions": "human", "remark": "listed apart in the source"}, "[9]": {"tested_on": "HCV pseudoparticle (HCVpp) GT 1b", "experiment": "HCVpp entry assay, genotype 1b", "format": "cell-based, hepatitis C virus (HCV)", "conditions": "tested at 10 µM; % of DMSO control"}, "[10]": {"experiment": "Double-sink PAMPA permeability", "format": "in vitro ADME"}, "[11]": {"experiment": "In vitro microsomal stability", "format": "in vitro ADME", "conditions": "CD-1, mouse, liver microsomes"}, "[12]": {"tested_on": "HCV pseudoparticle (HCVpp) GT 1a", "experiment": "HCVpp entry assay, genotype 1a", "format": "cell-based, hepatitis C virus (HCV)", "conditions": "tested at 10 µM; % of DMSO control"}, "[13]": {"tested_on": "transient genotype 1a subgenomic replicon in Huh7.5.1 cells", "experiment": "Transient genotype 1a replicon assay", "format": "cell-based, hepatitis C virus (HCV)", "conditions": "tested at 10 µM; % of DMSO control"}, "[14]": {"tested_on": "single-round infectious HCV (HCVsc)", "experiment": "HCV single-cycle assay", "format": "cell-based, hepatitis C virus (HCV)", "conditions": "tested at 10 µM; % of DMSO control"}}, "note": "Like-named read-outs stand apart in the source and are kept apart here."}
{"smiles": "COc1ccc(-c2ccc3oc(-c4ccc(OC)cc4)c(C#CCCO)c3c2)cc1", "note": "[2{1}]", "values": [{"measurement": "CC50", "setting": "[1]", "result": 70900, "unit": "nM"}, {"measurement": "inhibitory activity in the HCV-Luc assay", "setting": "[2]", "result": "low-micromolar"}, {"measurement": "EC50", "setting": "[2]; read-out: HCV-Luc EC50, Huh7.5.1 cells, 48 h, Renilla luciferase signal", "result": 980, "unit": "nM"}]}
{"smiles": "COc1ccc(-c2oc3ccc(-c4ccc5c(c4)OCO5)nc3c2C#CC2(O)CCCCC2)cc1", "note": "[10{21}, 1-((5-(Benzo[d][1,3]dioxol-5-yl)-2-(4-methoxyphenyl)furo-[3,2-b]pyridin-3-yl)ethynyl)cyclohexanol]", "values": [{"measurement": "CC50", "setting": "[3]", "result": 92300, "unit": "nM"}, {"measurement": "HCV Replicon DMSO (%) GT lb", "setting": "[4]", "result": 82.1, "unit": "%"}, {"measurement": "extracellular and intracellular viral RNA levels", "setting": "[5]", "result": "most promising activity"}, {"measurement": "HCV Replicon DMSO (%) GT 2a", "setting": "[6]", "result": 121, "unit": "%"}, {"measurement": "VSVpp DMSO (%)", "setting": "[7]", "result": 121, "unit": "%"}, {"measurement": "CC50 at 48 h", "setting": "[8]", "result": "> 100000", "unit": "nM"}, {"measurement": "HCVpp DMSO (%) GT lb", "setting": "[9]", "result": 78.1, "unit": "%"}, {"measurement": "Papp", "setting": "[10]; PAMPA", "result": "< 15.4", "unit": "×10⁻⁶ cm/s"}, {"measurement": "permeability", "setting": "[10]; double-sink PAMPA", "result": "moderate permeability"}, {"measurement": "half-life", "setting": "[11]", "result": "> 30", "unit": "min"}, {"measurement": "HCVpp DMSO (%) GT la", "setting": "[12]", "result": 41.2, "unit": "%"}, {"measurement": "EC50", "setting": "[2]; Huh-7.5.1, 48 h, read-out: HCV-Luc EC50", "result": 184, "unit": "nM"}, {"measurement": "EC50", "setting": "[2]; Huh-7.5.1, read-out: HCV-Luc EC50", "result": 180, "unit": "nM"}, {"measurement": "Selective Index (SI)", "setting": "[2]; SI = CC50/EC50, Huh7.5.1 cells", "result": ">543"}, {"measurement": "HCV Replicon DMSO (%) Transient la", "setting": "[13]", "result": 194, "unit": "%"}, {"measurement": "HCVsc DMSO (%)", "setting": "[14]", "result": 20.0, "unit": "%"}]}
